Each structure is given as a SMILES string. Active and inactive are the calls of the source. No cut-off for these calls is given here.

In data set [1] the target is T1, DNA excision repair protein ERCC-1/DNA repair endonuclease XPF (Homo sapiens, UniProt P07992+Q92889).
T1 sequence (P07992 whole entry): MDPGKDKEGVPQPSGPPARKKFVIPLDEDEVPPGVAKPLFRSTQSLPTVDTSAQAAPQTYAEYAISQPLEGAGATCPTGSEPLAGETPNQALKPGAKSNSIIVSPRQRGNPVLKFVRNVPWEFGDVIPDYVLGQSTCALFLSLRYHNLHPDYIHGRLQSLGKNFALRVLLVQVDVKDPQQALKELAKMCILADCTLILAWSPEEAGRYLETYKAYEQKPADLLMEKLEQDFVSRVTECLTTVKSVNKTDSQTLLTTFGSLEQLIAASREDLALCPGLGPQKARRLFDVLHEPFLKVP
T1 sequence (Q92889 whole entry): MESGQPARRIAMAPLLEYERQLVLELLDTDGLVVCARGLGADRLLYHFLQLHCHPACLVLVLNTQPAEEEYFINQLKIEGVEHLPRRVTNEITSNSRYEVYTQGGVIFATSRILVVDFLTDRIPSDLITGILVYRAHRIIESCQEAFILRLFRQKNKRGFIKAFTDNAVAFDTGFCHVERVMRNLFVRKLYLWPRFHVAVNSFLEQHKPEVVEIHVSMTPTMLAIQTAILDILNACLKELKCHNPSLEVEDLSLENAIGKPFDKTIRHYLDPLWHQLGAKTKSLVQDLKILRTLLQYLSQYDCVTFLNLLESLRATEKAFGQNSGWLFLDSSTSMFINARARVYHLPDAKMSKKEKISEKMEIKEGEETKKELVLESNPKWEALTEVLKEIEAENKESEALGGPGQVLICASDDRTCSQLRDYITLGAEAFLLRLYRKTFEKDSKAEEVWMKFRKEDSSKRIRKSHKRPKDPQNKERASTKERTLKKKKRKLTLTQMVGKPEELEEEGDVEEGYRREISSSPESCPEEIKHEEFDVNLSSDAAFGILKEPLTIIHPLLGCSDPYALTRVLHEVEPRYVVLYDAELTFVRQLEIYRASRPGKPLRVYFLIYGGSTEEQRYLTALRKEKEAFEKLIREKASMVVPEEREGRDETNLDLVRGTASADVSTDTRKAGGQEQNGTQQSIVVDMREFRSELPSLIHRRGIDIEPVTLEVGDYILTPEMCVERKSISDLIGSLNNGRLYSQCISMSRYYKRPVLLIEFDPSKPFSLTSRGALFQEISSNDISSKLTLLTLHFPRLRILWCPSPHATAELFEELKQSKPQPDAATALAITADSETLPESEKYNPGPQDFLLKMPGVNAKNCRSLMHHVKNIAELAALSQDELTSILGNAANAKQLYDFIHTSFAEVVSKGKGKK
Put plainly: Binding affinity to His-tagged human ERCC1-XPF expressed in Escherichia coli BL21 (DE3) cells by steady-state fluorescence assay.

The target of data set [2] is T2, DNA excision repair protein ERCC-1/DNA repair endonuclease XPF (Homo sapiens) (UniProt P07992+Q92889). Put plainly: Inhibition of human His-tagged ERCC1-XPF expressed in Escherichia coli BL21 (DE3) cells using 6-FAM-5'CAGCGCTCGG(20T)CCGAGCGCTG-3'-dabcyl at 10 uM measured for 12 mins by fluorescence incision assay.
The subject of data set [3] is HCT-116. Put plainly: Cytotoxicity against human HCT-116 cells assessed as reduction in cell viability at >= 5 uM after 3 days. The format is cell-based. The conditions noted are these: hct-116, 72 h, time 3 day.
Data set [4] is described as follows: Cytotoxicity against human HCT-116 cells assessed as cell viability at 5 uM after 3 days relative to control. Format: cell-based. The conditions noted are these: time 3 day, read-out: Activity.
The test system of data set [5] is HCT-116. Put plainly: Antiproliferative activity against human UV-radiated HCT-116 cells assessed as sensitizing capacity by measuring reduction in cell survival at 2 uM by clonogenic survival assay. Format: functional, cell-based.
For data set [6], the target named is T1, DNA excision repair protein ERCC-1/DNA repair endonuclease XPF. In words: Inhibition of human His-tagged human ERCC1-XPF expressed in Escherichia coli BL21 (DE3) cells using 6-FAM-5'CAGCGCTCGG(20T)CCGAGCGCTG-3'-dabcyl measured for 12 mins by fluorescence incision assay.
Data set [7] can be described thus: Binding affinity to 6-FAM-5'CAGCGCTCGG(20T)CCGAGCGCTG-3'-dabcyl (unknown origin) measured for 12 mins by fluorescence incision assay.
For data set [8], the target named is T2, DNA excision repair protein ERCC-1/DNA repair endonuclease XPF (Homo sapiens). Put plainly: Binding affinity to His-tagged human ERCC1-XPF expressed in Escherichia coli BL21 (DE3) cells at 4 uM by steady-state fluorescence assay relative to control.
The target is the same in data set [9]. In words: Inhibition of ERCC1-XPF in UV-radiated human HCT-116 cells assessed as cyclobutane pyrimidine dimer DNA repair at 2 uM preincubated for 1 hr followed by 8 J/m2 UV-C radiation and measured up to 24 hrs by IgG-Alexafluor antibody based fluorescent microscopic analysis (reference value: 16%). The format is cell-based. Further details: scale not given: the % may be the effect or the level left. The conditions noted are these: time hrs <=25.

In data set [10] the test system is HCT-116. In words: Cytotoxicity against human HCT-116 cells assessed as reduction in cell viability at 2 uM after 3 days relative to control. Format: cell-based. The settings on record: hct-116, 72 h, time 3 day.
The test system of data set [11] is HCT-116. Put plainly: Antiproliferative activity against human UV-radiated HCT-116 cells assessed as sensitizing capacity by measuring reduction in cell survival at 2 to 4 uM by clonogenic survival assay. The format is functional, cell-based. The settings on record: dose 2-4 µM.
Data set [12] has as its system HCT-116. In words: Antiproliferative activity against human HCT-116 cells assessed as sensitizing capacity by measuring reduction in cell survival at 2 uM in presence of cyclophosphamide by clonogenic survival assay. Format: functional, cell-based.
Data set [13] has as its system HCT-116. In words: Cytotoxicity against human HCT-116 cells assessed as reduction in cell viability at 5 to 20 uM after 3 days. The format is cell-based. The conditions noted are these: hct-116, 72 h, dose 5-20 µM, time 3 day.
Data set [14] has as its system HCT-116. In words: Antiproliferative activity against human HCT-116 cells assessed as sensitizing capacity by measuring reduction in cell survival at 4 uM in presence of cyclophosphamide by clonogenic survival assay. The format is functional, cell-based.

`COc1ccc2nc3cc(Cl)ccc3c(Nc3ccc(O)c(CN4CCN(C)CC4)c3)c2c1` displayed a dissociation constant (Kd) in [1] of 140 nM. Besides, the inhibition result in data set [2] was “Active”. For the same compound, the Activity result in the data set with HCT-116 [3] is reported as “Toxic”. For the same compound, the viability at 72 h, 5 µM in data set [4] was 35%. Besides, the outcome in the data set with HCT-116 [5] was Active.

As to `COc1ccc2c(Nc3ccc(O)c(CN(C)C)c3)ccnc2c1`, the inhibition result in data set [2] is “Active”.

For the compound `COc1ccc2nc3cc(Cl)ccc3c(Cl)c2c1`, the inhibition entry in data set [2] is “inactive”.

As to `COc1ccc2c(Nc3ccc(O)cc3)ccnc2c1`, in data set [2], the inhibition result is “inactive”.

Turning to `CN(C)CCN1CCN(Cc2cc(Nc3c4ccc(Cl)cc4nc4ccc(O)cc34)ccc2O)CC1`, the concentration for half-maximal inhibition (IC50) in data set [6] is 490 nM. Besides, the Kd came to 85 nM in data set [1] and 1050 nM in [7]. Moreover, the inhibition entry in [2] is “Active”. For the same compound, the Activity in data set [8] stood at 25%; in [9] it was 35%; with HCT-116 [10] it was 95%. The outcome in the data set with HCT-116 [11] and in the data set with HCT-116 [12] was Active.

On to `CN1CCN(Cc2cc(Nc3c4ccc(Cl)cc4nc4ccc(O)cc34)ccc2O)CC1`, for which, in data set [2], the inhibition entry is “Active”.

Turning to `Oc1ccc2nc3cc(Cl)ccc3c(Cl)c2c1`, the inhibition result in data set [2] is “Active”.

Consider `CN1CCN(Cc2cc(N)ccc2O)CC1`, for which the inhibition result in data set [2] is “inactive”.

In the case of `COc1cc(C#N)c(Nc2c3ccc(Cl)cc3nc3ccc(O)cc23)cc1OC`, the inhibition result in data set [2] was “Active”.

For the compound `COc1ccc2c(Nc3ccc(O)c(CN4CCN(CCN(C)C)CC4)c3)ccnc2c1`, in data set [2], the inhibition result was “Active”.

The compound `CN1CCN(Cc2cc(Nc3c4ccc(Cl)cc4nc4ccc(OCc5ccccc5)cc34)ccc2O)CC1` registered a Kd in data set [7] of 200 nM. Further, in data set [2], the inhibition entry was “Active”. Besides, the Activity in data set [8] was less than 2%; in the data set with HCT-116 [13], “Non-Toxic”. Besides, in the data set with HCT-116 [14], the result was inactive.

As for `COc1ccc2c(Cl)ccnc2c1`, the inhibition entry in [2] was “inactive”.

One may read the Kd as the concentration at which binding is half-saturated. As usually defined, the IC50 is the point on the concentration scale where inhibition reaches its midpoint.
